Laboratory results taken from patent US10010614B2, “Derivatives of GLP-1 like peptides, and uses thereof” (Novo Nordisk A/S, priority 2013, dated 2018).
pEC50: −log10 of the molar value. Numbered stars: 1 amine (or outer) side, 2 acyl side, 3 side chain; on linkers, the order of the positions; unused ones are H or OH. Square brackets hold non-standard residues; d marks the D form. Side chains are listed from the residue outwards. Peptide text beside a SMILES is read from it. * marks the point of attachment. X1 = O=C(O)CCCCCCCCCCCCCCCCCCC(=O)NCC1CCC(C(=O)*)CC1; C20 diacid = O=C(O)CCCCCCCCCCCCCCCCCCC(=O)*; γGlu = O=C(O)[C@H](CCC(=O)[*:2])N[*:1]; εLys = N[C@@H](CCCCN[*:1])C(=O)[*:2]; Trx = NC[C@H]1CC[C@H](C(=O)O)CC1; AEEA = NCCOCCOCC(=O)O; Aib = CC(C)(N)C(=O)O

What was measured:
[1] = Pharmacokinetic study in minipigs (i.v.); type: in vivo; details: male, Göttingen, minipig, plasma, iv; read-out: Terminal half-live (converted)
Protocol: The purpose of this study is to determine the protraction in vivo of the GLP-1 derivatives after i.v. administration to minipigs, i.e. the prolongation of their time in the body and thereby their time of action. This is done in a pharmacokinetic (PK) study, where the terminal half-life of the derivative in question is determined. By terminal half-life is meant the time it takes to halve a certain plasma concentration in the terminal elimination phase.
The derivatives of Examples 1-5 were dosed with 2 nmol/kg, the derivative of Example 6 was dosed with 5 nmol/kg, and the derivatives of Examples 7-9 were dosed with 15 nmol/kg.
Male Göttingen minipigs were obtained from Ellegaard Göttingen Minipigs (Dalmose, Denmark) approximately 7-14 months of age and weighing approximately 16-35 kg were used in the studies. The minipigs were housed either individually (pigs with permanent catheters) or in a group and fed restrictedly once or twice daily with SDS minipig diet (Special Diets Services, Essex, UK).
After at least 2 weeks of acclimatisation two permanent central venous catheters were implanted in vena cava caudalis or cranialis in each animal. The animals were allowed 1 week recovery after the surgery, and were then used for repeated pharmacokinetic studies with a suitable wash-out period between successive GLP-1 derivative dosings.
The GLP-1 derivatives were dissolved in 50 mM sodium phosphate, 70-145 mM sodium chloride, 0.05% tween 80, pH 7.4 to a concentration of usually from 20-60 nmol/ml.
Intravenous injections (the volume corresponding to for example 0.050-0.125 ml/kg) of the compounds were given through one catheter or through the venflon, and blood was sampled at predefined time points for up till 25 days post dosing (preferably through the other catheter or by venipuncture). Blood samples (for example 0.8 ml) were collected in EDTA buffer (8 mM) and then centrifuged at 4° C. and 1942G for 10 minutes.
Plasma was pipetted into Micronic tubes on dry ice, and kept at −20° C. until analysed for plasma concentration of the respective GLP-1 compound using LOCI. Individual plasma concentration-time profiles were analyzed by a non-compartmental pharmacokinetic method in Phoenix v. 6.2 (Pharsight Inc., Mountain View, Calif., USA), or other relevant software for PK analysis, and the resulting terminal half-lives (harmonic mean) determined.

human GLP-1 receptor [2] = biological target: T1, human GLP-1 receptor (Homo sapiens, UniProt P43220); assay: In vitro potency, CRE luciferase reporter gene assay in BHK cells expressing the human GLP-1 receptor; type: cell-based; details: whole cell reporter gene assay, 3 h incubation, no HSA, averages of at least two replicates
T1 construct: expressed in transfected cells; host or cells: membranes prepared from BHK cells (parent line BHKTS13), clone FCW467-12A
T1 sequence (P43220 24-463): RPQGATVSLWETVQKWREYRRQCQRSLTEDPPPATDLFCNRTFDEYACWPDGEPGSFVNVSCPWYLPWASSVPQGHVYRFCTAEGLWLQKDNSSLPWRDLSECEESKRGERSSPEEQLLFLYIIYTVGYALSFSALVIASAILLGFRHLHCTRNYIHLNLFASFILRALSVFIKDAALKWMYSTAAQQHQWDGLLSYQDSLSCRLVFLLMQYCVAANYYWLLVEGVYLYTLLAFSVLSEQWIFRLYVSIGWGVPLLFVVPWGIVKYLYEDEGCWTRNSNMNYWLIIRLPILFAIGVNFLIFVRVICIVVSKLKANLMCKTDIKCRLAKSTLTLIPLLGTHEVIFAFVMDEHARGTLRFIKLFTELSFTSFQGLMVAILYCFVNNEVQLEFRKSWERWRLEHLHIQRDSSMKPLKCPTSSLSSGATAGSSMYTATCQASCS
Summary of the method: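 Stably transfected BHK cells (5×10^3/well) expressing human GLP-1R with a CRE-luciferase reporter; compounds diluted in buffer with 2% ovalbumin and 0.2% Pluronic F-68, final 1×10^−7 to 1×10^−14 M. Incubated 3 h at 37 °C, 5% CO2, then luminescence read; potency from non-linear log(agonist)–response fit, mean of ≥2 replicates.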

human GLP-1 receptor [3] = biological target: T1, human GLP-1 receptor; assay: GLP-1 receptor binding, competitive binding assay (125I-GLP-1, SPA) on isolated membranes;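 note: test compounds added at a range of concentrations to membranes from cells expressing the human GLP-1 receptor, scored by displacement of labelled ligand, read with WGA SPA beads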

Row | SMILES | half-life [1] [h] | pEC50 (human GLP-1 receptor [2]) | IC50 (human GLP-1 receptor [3]; High HSA IC50 (nM), high serum albumin (2.0% HSA final assay concentration)) [nM] | IC50 (human GLP-1 receptor [3]; Low HSA IC50 (nM), low serum albumin (max. 0.001% final assay concentration)) [nM]
1 | CC[C@H](C)[C@H](NC(=O)[C@H](Cc1ccccc1)NC(=O)[C@H](CCC(=O)O)NC(=O)[C@H](CCCNC(=N)N)NC(=O)[C@H](C)NC(=O)[C@H](C)NC(=O)[C@H](CCC(N)=O)NC(=O)[C@H](CCC(=O)O)NC(=O)[C@H](CCC(=O)O)NC(=O)[C@H](CC(C)C)NC(=O)[C@H](Cc1ccc(O)cc1)NC(=O)[C@H](CO)NC(=O)[C@H](CO)NC(=O)[C@@H](NC(=O)[C@H](CC(=O)O)NC(=O)[C@H](CO)NC(=O)[C@@H](NC(=O)[C@H](Cc1ccccc1)NC(=O)[C@@H](NC(=O)CNC(=O)[C@H](CCC(=O)O)NC(=O)C(C)(C)NC(=O)[C@@H](N)Cc1c[nH]cn1)[C@@H](C)O)[C@@H](C)O)C(C)C)C(=O)N[C@@H](C)C(=O)N[C@@H](Cc1c[nH]c2ccccc12)C(=O)N[C@@H](CC(C)C)C(=O)N[C@H](C(=O)N[C@@H](CCCNC(=N)N)C(=O)NCC(=O)N[C@@H](CCCNC(=N)N)C(=O)NCC(=O)N[C@@H](CCCCNC(=O)[C@@H](N)CCCCNC(=O)[C@@H](N)CCCCNC(=O)CC[C@H](NC(=O)[C@H]1CC[C@H](CNC(=O)CCCCCCCCCCCCCCCCCCC(=O)O)CC1)C(=O)O)C(=O)NCC(=O)NCC(=O)N[C@@H](CO)C(=O)N[C@@H](CCCCNC(=O)[C@@H](N)CCCCNC(=O)[C@@H](N)CCCCNC(=O)CC[C@H](NC(=O)[C@H]1CC[C@H](CNC(=O)CCCCCCCCCCCCCCCCCCC(=O)O)CC1)C(=O)O)C(=O)O)C(C)C [Example 7] (H-H[Aib]EGTFTSDVSSYLEEQAAREFIAWLVRGRGK([εLys-εLys-γGlu-Trx-C20 diacid])GGSK([εLys-εLys-γGlu-Trx-C20 diacid])-OH) | 106 | – | – | –
2 | CC[C@H](C)[C@H](NC(=O)[C@H](Cc1ccccc1)NC(=O)[C@H](CCC(=O)O)NC(=O)[C@H](CCCNC(=N)N)NC(=O)[C@H](C)NC(=O)[C@H](C)NC(=O)[C@H](CCC(N)=O)NC(=O)[C@H](CCC(=O)O)NC(=O)[C@H](CCC(=O)O)NC(=O)[C@H](CC(C)C)NC(=O)[C@H](Cc1ccc(O)cc1)NC(=O)[C@H](CO)NC(=O)[C@H](CO)NC(=O)[C@@H](NC(=O)[C@H](CC(=O)O)NC(=O)[C@H](CO)NC(=O)[C@@H](NC(=O)[C@H](Cc1ccccc1)NC(=O)[C@@H](NC(=O)CNC(=O)[C@H](CCC(=O)O)NC(=O)C(C)(C)NC(=O)[C@@H](N)Cc1c[nH]cn1)[C@@H](C)O)[C@@H](C)O)C(C)C)C(=O)N[C@@H](C)C(=O)N[C@@H](Cc1c[nH]c2ccccc12)C(=O)N[C@@H](CC(C)C)C(=O)N[C@H](C(=O)N[C@@H](CCCNC(=N)N)C(=O)NCC(=O)N[C@@H](CCCNC(=N)N)C(=O)NCC(=O)N[C@@H](CCCCNC(=O)COCCOCCNC(=O)COCCOCCNC(=O)CC[C@H](NC(=O)[C@H]1CC[C@H](CNC(=O)CCCCCCCCCCCCCCCCCCC(=O)O)CC1)C(=O)O)C(=O)NCC(=O)NCC(=O)N[C@@H](CO)C(=O)N[C@@H](CCCCNC(=O)COCCOCCNC(=O)COCCOCCNC(=O)CC[C@H](NC(=O)[C@H]1CC[C@H](CNC(=O)CCCCCCCCCCCCCCCCCCC(=O)O)CC1)C(=O)O)C(=O)O)C(C)C [Example 3] (H-H[Aib]EGTFTSDVSSYLEEQAAREFIAWLVRGRGK([AEEA-AEEA-γGlu-Trx-C20 diacid])GGSK([AEEA-AEEA-γGlu-Trx-C20 diacid])-OH) | 147 | 10.37 | 185 | 1.2
3 | CC[C@H](C)[C@H](NC(=O)[C@H](Cc1ccccc1)NC(=O)[C@H](CCC(=O)O)NC(=O)[C@H](CCCNC(=N)N)NC(=O)[C@H](C)NC(=O)[C@H](C)NC(=O)[C@H](CCC(N)=O)NC(=O)[C@H](CCC(=O)O)NC(=O)[C@H](CCC(=O)O)NC(=O)[C@H](CC(C)C)NC(=O)[C@H](Cc1ccc(O)cc1)NC(=O)[C@H](CO)NC(=O)[C@H](CO)NC(=O)[C@@H](NC(=O)[C@H](CC(=O)O)NC(=O)[C@H](CO)NC(=O)[C@@H](NC(=O)[C@H](Cc1ccccc1)NC(=O)[C@@H](NC(=O)CNC(=O)[C@H](CCC(=O)O)NC(=O)C(C)(C)NC(=O)[C@@H](N)Cc1c[nH]cn1)[C@@H](C)O)[C@@H](C)O)C(C)C)C(=O)N[C@@H](C)C(=O)N[C@@H](Cc1c[nH]c2ccccc12)C(=O)N[C@@H](CC(C)C)C(=O)N[C@H](C(=O)N[C@@H](CCCNC(=N)N)C(=O)NCC(=O)N[C@@H](CCCCNC(=O)COCCOCCNC(=O)COCCOCCNC(=O)CC[C@H](NC(=O)C1CCC(CNC(=O)CCCCCCCCCCCCCCCCCCC(=O)O)CC1)C(=O)O)C(=O)NCC(=O)NCC(=O)NCC(=O)NCC(=O)N[C@@H](CO)C(=O)N[C@@H](CCCCNC(=O)COCCOCCNC(=O)COCCOCCNC(=O)CC[C@H](NC(=O)C1CCC(CNC(=O)CCCCCCCCCCCCCCCCCCC(=O)O)CC1)C(=O)O)C(=O)O)C(C)C (some centres unmarked) [Example 5] (H-H[Aib]EGTFTSDVSSYLEEQAAREFIAWLVRGK([AEEA-AEEA-γGlu-X1])GGGGSK([AEEA-AEEA-γGlu-X1])-OH; N-terminus and C-terminus assumed) | 131 | – | – | –
4 | CC[C@H](C)[C@H](NC(=O)[C@H](Cc1ccccc1)NC(=O)[C@H](CCCCNC(=O)COCCOCCNC(=O)COCCOCCNC(=O)CC[C@H](NC(=O)C1CCC(CNC(=O)CCCCCCCCCCCCCCCCCCC(=O)O)CC1)C(=O)O)NC(=O)[C@H](CCCNC(=N)N)NC(=O)[C@H](C)NC(=O)[C@H](C)NC(=O)[C@H](CCC(N)=O)NC(=O)[C@H](CCC(=O)O)NC(=O)[C@H](CCC(=O)O)NC(=O)[C@H](CC(C)C)NC(=O)[C@H](Cc1ccc(O)cc1)NC(=O)[C@H](CO)NC(=O)[C@H](CO)NC(=O)[C@@H](NC(=O)[C@H](CC(=O)O)NC(=O)[C@H](CO)NC(=O)[C@@H](NC(=O)[C@H](Cc1ccccc1)NC(=O)[C@@H](NC(=O)CNC(=O)[C@H](CCC(=O)O)NC(=O)C(C)(C)NC(=O)[C@@H](N)Cc1c[nH]cn1)[C@@H](C)O)[C@@H](C)O)C(C)C)C(=O)N[C@@H](C)C(=O)N[C@@H](Cc1c[nH]c2ccccc12)C(=O)N[C@@H](CC(C)C)C(=O)N[C@H](C(=O)N[C@@H](CCCNC(=N)N)C(=O)NCC(=O)N[C@@H](CCCNC(=N)N)C(=O)NCC(=O)NCC(=O)NCC(=O)NCC(=O)N[C@@H](CO)C(=O)N[C@@H](CCCCNC(=O)COCCOCCNC(=O)COCCOCCNC(=O)CC[C@H](NC(=O)C1CCC(CNC(=O)CCCCCCCCCCCCCCCCCCC(=O)O)CC1)C(=O)O)C(=O)O)C(C)C (some centres unmarked) [Example 1] (H-H[Aib]EGTFTSDVSSYLEEQAARK([AEEA-AEEA-γGlu-X1])FIAWLVRGRGGGGSK([AEEA-AEEA-γGlu-X1])-OH; N-terminus and C-terminus assumed) | 121 | – | – | –
5 | CC[C@H](C)[C@H](NC(=O)[C@H](Cc1ccccc1)NC(=O)[C@H](CCC(=O)O)NC(=O)[C@H](CCCNC(=N)N)NC(=O)[C@H](C)NC(=O)[C@H](C)NC(=O)[C@H](CCCCNC(=O)COCCOCCNC(=O)COCCOCCNC(=O)CC[C@H](NC(=O)C1CCC(CNC(=O)CCCCCCCCCCCCCCCCCCC(=O)O)CC1)C(=O)O)NC(=O)[C@H](CCC(=O)O)NC(=O)[C@H](CCC(=O)O)NC(=O)[C@H](CC(C)C)NC(=O)[C@H](Cc1ccc(O)cc1)NC(=O)[C@H](CO)NC(=O)[C@H](CO)NC(=O)[C@@H](NC(=O)[C@H](CC(=O)O)NC(=O)[C@H](CO)NC(=O)[C@@H](NC(=O)[C@H](Cc1ccccc1)NC(=O)[C@@H](NC(=O)CNC(=O)[C@H](CCC(=O)O)NC(=O)C(C)(C)NC(=O)[C@@H](N)Cc1c[nH]cn1)[C@@H](C)O)[C@@H](C)O)C(C)C)C(=O)N[C@@H](C)C(=O)N[C@@H](Cc1c[nH]c2ccccc12)C(=O)N[C@@H](CC(C)C)C(=O)N[C@H](C(=O)N[C@@H](CCCNC(=N)N)C(=O)NCC(=O)N[C@@H](CCCNC(=N)N)C(=O)NCC(=O)NCC(=O)NCC(=O)NCC(=O)N[C@@H](CO)C(=O)N[C@@H](CCCCNC(=O)COCCOCCNC(=O)COCCOCCNC(=O)CC[C@H](NC(=O)C1CCC(CNC(=O)CCCCCCCCCCCCCCCCCCC(=O)O)CC1)C(=O)O)C(=O)O)C(C)C (some centres unmarked) [Example 4] (H-H[Aib]EGTFTSDVSSYLEEK([AEEA-AEEA-γGlu-X1])AAREFIAWLVRGRGGGGSK([AEEA-AEEA-γGlu-X1])-OH; N-terminus and C-terminus assumed) | 137 | – | – | –
